This is an account of results in patent US20070093457A1, “Compositions for treatment of cancer and inflammation with curcumin and at least one nsaid” (priority 2004, published 2007).

In general, IC50 refers to the point on the concentration scale where inhibition reaches its midpoint.

One experiment has as its system RASF cells. The experiment can be described thus: RASF apoptosis, flow-cytometric analysis.
For a further experiment, the system named is RASFs. Put plainly: RASF cell viability assay (XTT). It counts as cell-based. The following applies: Homo sapiens, 72 hours, read-out: IC50 cell growth. The method, then:
RASFs that had been prepared from small pieces (2 mm in diameter) of human synovial tissue were grown after trypsinization in monolayers in tissue culture flasks, as known to a person skilled in the art. The synovial tissue specimens were obtained during total knee replacement surgery in patients diagnosed as having rheumatoid arthritis according to the revised criteria of the American College of Rheumatology. Synovial tissue was digested for 2 hours with 0.2% (weight/volume) bacterial collagenase and then suspended in Dulbecco's modified Eagle's medium (DMEM, Biological Industries, Israel) with 10% (volume/volume) fetal calf serum (FCS), 100 units/ml penicillin, and […] streptomycin. The cells were incubated at 37° C. in 5% CO2 for 3-5 days, after which the non-adherent cells were removed. Fibroblast-like adherent cells from the first or second passage were used as RASFs.
RASFs (1.5×10^4/well) were incubated at 37° C. in 96-well plastic plates with test drugs in DMEM containing 10% FCS in an atmosphere of 5% CO2 (fmal dimethyl sulfoxide concentration 0.1%). After 72 hours, cell viability was assessed by the ability of metabolically active cells to reduce tetrazolium salt (XTT) to colored formazan compounds. The absorbance of the samples was measured with a specific enzyme-linked immunoassay (ELISA) reader (wavelength 450 nm; reference wavelength 630 nm). […]
In general terms: Tetrazolium assays rely on reduction of a dye to a coloured formazan, in cell work by metabolically active cells.

Another experiment deals with COX-2. The settings on record: HT-29; curcumin 10-15 μM. The method, then: PGE2 concentration in the medium, as released by the cells, was determined by a commercially available PGE2-specific enzyme-linked immunoassay (R&D Biosystems, Abingdon, UK) according to the manufacturer's protocol.
The test system of the next experiment is COX-2 mRNA. The experiment can be described thus: Reverse transcriptase PCR of COX-2 mRNA. It counts as cell-based, human. The following applies: HT-29; selected concentrations. The method, then: HT-29 cells were treated with the selected drugs as indicated. The mRNA was extracted, and equal amounts were transcribed to cDNA from a kit (Promega, CITY, USA). The cDNA was taken from samples at various times and used as the DNA templates for PCR. Primers used for COX-2 were: […]
GAPDH was used to ensure equal loading. […] were used as the template and […] of each primer was used for each cDNA sample. The samples went through 30 rounds of PCR. They were separated on 1% agarose gel and visualized by ethidium bromide. 7. Measurement of PGE2 Concentration

As to `Cc1ccc(-c2cc(C(F)(F)F)nn2-c2ccc(S(N)(=O)=O)cc2)cc1` [celecoxib, reference compound], in the experiment on RASF cells (celecoxib 20-40 μM), the “cell apoptosis (cells with sub-diploid DNA content)” value was 4.8-19.2%. Further, in the experiment with RASFs, the IC50 amounted to 40 µM.

Regarding `COc1cc(/C=C/C(=O)CC(=O)/C=C/c2ccc(O)c(OC)c2)ccc1O` [curcumin], in the experiment with RASF cells (curcumin 20 μM), the “cell apoptosis (cells with sub-diploid DNA content)” value is 4.7%. Moreover, in the experiment with RASFs, the IC50 stood at 35 µM. Further, the “effect on PGE2 synthesis” value with COX-2 is “dose-dependent effect”. Further, in the experiment with COX-2 mRNA, the “COX-2 mRNA expression” value is “no effect”.
